In US20240158446A1, “CYCLIC COMPOUND HAVING SELECTIVE INHIBITORY ACTION ON KRAS OVER HRAS AND NRAS” (CHUGAI SEIYAKU KABUSHIKI KAISHA, priority 2021, published 2024):

Legend:
[1] = target: GDP-bound NRAS wild-type protein (Homo sapiens, UniProt P01111); test: Binding to NRAS by surface plasmon resonance (SPR), Single Cycle Kinetics; settings: SPR; for NRAS/KRAS (ratio of KD value for NRAS to KD value for KRAS): GDP-bound NRAS wild-type protein vs GDP-bound KRAS wild-type protein
[2] = target: GDP-bound HRAS wild-type protein (Homo sapiens, UniProt P01112); test: Binding to HRAS by surface plasmon resonance (SPR), Single Cycle Kinetics; settings: SPR; for HRAS/KRAS (ratio of KD value for HRAS to KD value for KRAS): GDP-bound HRAS wild-type protein vs GDP-bound KRAS wild-type protein
Chain of GDP-bound HRAS wild-type protein (P01112 whole entry): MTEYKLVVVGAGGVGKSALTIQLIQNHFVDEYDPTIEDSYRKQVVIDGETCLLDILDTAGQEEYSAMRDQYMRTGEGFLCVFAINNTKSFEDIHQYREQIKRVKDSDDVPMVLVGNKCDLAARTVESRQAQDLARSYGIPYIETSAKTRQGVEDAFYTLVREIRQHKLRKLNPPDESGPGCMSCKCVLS

Chain of GDP-bound NRAS wild-type protein (P01111 whole entry): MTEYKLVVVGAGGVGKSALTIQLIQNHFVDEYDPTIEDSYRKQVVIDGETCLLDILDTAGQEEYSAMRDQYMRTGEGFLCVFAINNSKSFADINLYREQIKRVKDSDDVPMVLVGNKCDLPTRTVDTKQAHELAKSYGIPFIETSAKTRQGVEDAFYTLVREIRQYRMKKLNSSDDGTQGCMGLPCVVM

SMILES	NRAS/KRAS (ratio of KD value for NRAS to KD value for KRAS) ([1]; KD ratio class)	HRAS/KRAS (ratio of KD value for HRAS to KD value for KRAS) ([2]; KD ratio class)	other results
CCO[C@@H]1C[C@H]2C(=O)NC3(CCC3)C(=O)N(C)[C@@H](C(CC)CC)C(=O)N(C)[C@H](C)CC(=O)N(C)[C@@H](CC(C)C)C(=O)N[C@@H]([C@@H](C)CC)C(=O)N(C)CC(=O)N(C)[C@H]3C/C=C\CCN(C3=O)[C@@H](Cc3ccc(F)cc3C)C(=O)N(C)CC(=O)N[C@@H](CCc3cc(F)c(C(F)(F)F)c(F)c3)C(=O)N2C1 [PP1524]	B (a compound having 3 or more and less than 10 is denoted as B)	B (a compound having 3 or more and less than 10 is denoted as B)	
CCO[C@@H]1C[C@H]2C(=O)NC3(CCC3)C(=O)N(C)[C@@H](C(CC)CC)C(=O)N(C)[C@H](C)CC(=O)N(C)[C@@H](CC(C)C)C(=O)N[C@@H]([C@@H](C)CC)C(=O)N(C)CC(=O)N(C)[C@H]3C/C=C\CCN(C3=O)[C@@H](Cc3ccc(F)cc3)C(=O)N(C)CC(=O)N[C@@H](CCc3cc(F)c(C(F)(F)F)c(F)c3)C(=O)N2C1 [PP1525]	A (a compound having 10 or more and less than 20 is denoted as A)	A (a compound having 10 or more and less than 20 is denoted as A)	
CCO[C@@H]1C[C@H]2C(=O)NC3(CCC3)C(=O)N(C)[C@@H](C(CC)CC)C(=O)N(C)[C@H](C(=O)N3CCOCC3)CC(=O)N(C)[C@@H](CC3CC3)C(=O)N[C@@H]([C@@H](C)CC)C(=O)N(C)CC(=O)N(C)[C@H]3C/C=C\CCN(C3=O)[C@@H](Cc3ccc(F)cc3)C(=O)N(C)CC(=O)N[C@@H](CCc3cc(F)c(C(F)(F)F)c(F)c3)C(=O)N2C1 [PP1527]	A (a compound having 10 or more and less than 20 is denoted as A)	A (a compound having 10 or more and less than 20 is denoted as A)	
CCO[C@@H]1C[C@H]2C(=O)NC3(CCC3)C(=O)N(C)[C@@H](C3CCCC3)C(=O)N(C)[C@H](C(=O)N(C)C)CC(=O)N(C)[C@@H](CC3CC3)C(=O)N[C@@H]([C@@H](C)CC)C(=O)N(C)CC(=O)N(C)[C@H]3C/C=C\CCN(C3=O)[C@@H](Cc3ccc(F)cc3C)C(=O)N(C)CC(=O)N[C@@H](CCc3cc(F)c(C(F)(F)F)c(F)c3)C(=O)N2C1 [PP1528]	A (a compound having 10 or more and less than 20 is denoted as A)	B (a compound having 3 or more and less than 10 is denoted as B)	
CCO[C@@H]1C[C@H]2C(=O)NC3(CCC3)C(=O)N(C)[C@@H](C3CCCC3)C(=O)N(C)[C@H](C(=O)N(C)C)CC(=O)N(C)[C@@H](CC3CCCC3)C(=O)N[C@@H]([C@@H](C)CC)C(=O)N(C)CC(=O)N(C)[C@H]3C/C=C\CCN(C3=O)[C@@H](Cc3ccc(F)cc3C)C(=O)N(C)CC(=O)N[C@@H](CCc3cc(F)c(C(F)(F)F)c(F)c3)C(=O)N2C1 [PP1530]	A (a compound having 10 or more and less than 20 is denoted as A)	B (a compound having 3 or more and less than 10 is denoted as B)	
C=CCCCCN(C)C(=O)[C@@H]1CC(=O)N(C)[C@@H](CC2CC2)C(=O)N[C@@H](CC=C)C(=O)N(C)CC(=O)N(C)[C@H]2C/C=C\CCN(C2=O)[C@@H](Cc2ccc(C(F)(F)F)cc2)C(=O)N(C)CC(=O)N[C@@H](CCc2cc(F)c(C(F)(F)F)c(F)c2)C(=O)N2C[C@H](OCC)C[C@H]2C(=O)NC2(CCC2)C(=O)N(C)[C@@H](C2CCCC2)C(=O)N1C [PP1554]	A (a compound having 10 or more and less than 20 is denoted as A)	A (a compound having 10 or more and less than 20 is denoted as A)	
C=CC[C@@H]1NC(=O)[C@H](CC2CC2)N(C)C(=O)C[C@@H](C(=O)N(C)CC=C)N(C)C(=O)[C@H](C2CCCC2)N(C)C(=O)C2(CCC2)NC(=O)[C@@H]2C[C@@H](OCC)CN2C(=O)[C@H](CCc2cc(F)c(C(F)(F)F)c(F)c2)NC(=O)CN(C)C(=O)[C@H](Cc2ccc(C(F)(F)F)cc2)N2CC/C=C\C[C@@H](C2=O)N(C)C(=O)CN(C)C1=O [PP1557]	A (a compound having 10 or more and less than 20 is denoted as A)	A (a compound having 10 or more and less than 20 is denoted as A)	
CCO[C@@H]1C[C@H]2C(=O)NC3(CC(C)(C)C3)C(=O)N(C)[C@@H](C3CCCC3)C(=O)N(C)[C@H](C(=O)N(C)C)CC(=O)N(C)[C@@H](CC3CCCC3)C(=O)N[C@@H]([C@@H](C)CC)C(=O)N(C)CC(=O)N(C)[C@H]3C/C=C\CCN(C3=O)[C@@H](Cc3ccc(C(F)(F)F)cc3)C(=O)N(C)CC(=O)N[C@@H](CCc3ccc(C(F)(F)F)c(OC)c3)C(=O)N2C1 [PP1565]	A (a compound having 10 or more and less than 20 is denoted as A)	B (a compound having 3 or more and less than 10 is denoted as B)	
CCO[C@@H]1C[C@H]2C(=O)NC3(CCC3)C(=O)N(C)[C@@H](C3CCCC3)C(=O)N(C)[C@H](C(=O)N(C)CC)CC(=O)N(C)[C@@H](CC3CCCC3)C(=O)N[C@@H]([C@@H](C)CC)C(=O)N(C)CC(=O)N(C)[C@H]3C/C=C\CCN(C3=O)[C@@H](Cc3ccc(C(F)(F)F)cc3)C(=O)N(C)CC(=O)N[C@@H](CCc3ccc(C(F)(F)F)c(OC)c3)C(=O)N2C1 [PP1573]	A (a compound having 10 or more and less than 20 is denoted as A)	A (a compound having 10 or more and less than 20 is denoted as A)	
CCCC[C@H]1C(=O)N[C@@H]([C@@H](C)CC)C(=O)N(C)CC(=O)N(C)[C@H]2C/C=C\CCN(C2=O)[C@@H](Cc2ccc(C(F)(F)F)cc2)C(=O)N(C)CC(=O)N[C@@H](CCc2cc(F)c(C(F)(F)F)c(F)c2)C(=O)N2C[C@H](OCC)C[C@H]2C(=O)NC2(CCC2)C(=O)N(C)[C@@H](C2CCCC2)C(=O)N(C)[C@H](C(=O)N(CC)CC)CC(=O)N1C [PP1576]	AA (a compound having 20 or more is denoted as AA)	A (a compound having 10 or more and less than 20 is denoted as A)	
CCCOC[C@H]1C(=O)N[C@@H]([C@@H](C)CC)C(=O)N(C)CC(=O)N(C)[C@H]2C/C=C\CCN(C2=O)[C@@H](Cc2ccc(C)cc2)C(=O)N(C)CC(=O)N[C@@H](CCc2cc(F)c(C(F)(F)F)c(F)c2)C(=O)N2C[C@H](OCC)C[C@H]2C(=O)NC2(CC(C)(C)C2)C(=O)N(C)[C@@H](C2CCCC2)C(=O)N(C)[C@H](C(=O)N(C)CC)CC(=O)N1C [PP1577]	B (a compound having 3 or more and less than 10 is denoted as B)	B (a compound having 3 or more and less than 10 is denoted as B)	
CCCOC[C@H]1C(=O)N[C@@H]([C@@H](C)CC)C(=O)N(C)CC(=O)N(C)[C@H]2C/C=C\CCN(C2=O)[C@@H](Cc2ccc(C)cc2)C(=O)N(C)CC(=O)N[C@@H](CCc2cc(F)c(C(F)(F)F)c(F)c2)C(=O)N2C[C@H](OCC)C[C@H]2C(=O)NC2(CC(C)(C)C2)C(=O)N(C)[C@@H](C2CCCC2)C(=O)N(C)[C@H](C(=O)N(CC)CC)CC(=O)N1C [PP1578]	A (a compound having 10 or more and less than 20 is denoted as A)	A (a compound having 10 or more and less than 20 is denoted as A)	
CCO[C@@H]1C[C@H]2C(=O)NC3(CC(C)(C)C3)C(=O)N(C)[C@@H](C3CCCC3)C(=O)N(C)[C@@H](C(C)C)CC(=O)N(C)[C@@H](CC3CC3)C(=O)N[C@@H]([C@@H](C)CC)C(=O)N(C)CC(=O)N(C)[C@H]3C/C=C\CCN(C3=O)[C@@H](Cc3ccc(C(F)(F)F)cc3)C(=O)N(C)CC(=O)N[C@@H](CCc3cc(F)c(C(F)(F)F)c(F)c3)C(=O)N2C1 [PP1594]	A (a compound having 10 or more and less than 20 is denoted as A)	A (a compound having 10 or more and less than 20 is denoted as A)	
CC[C@H](C)[C@@H]1NC(=O)[C@H](CC(C)C)N(C)C(=O)C[C@@H](C(=O)N(C)C)N(C)C(=O)[C@H](C2CCCC2)N(C)C(=O)C2(CC(C)(C)C2)NC(=O)[C@@H]2C[C@H](C)CN2C(=O)[C@H](CCc2ccc(C(F)(F)F)c(OC)c2)NC(=O)CN(C)C(=O)[C@H](Cc2ccc(C)cc2)N2CC/C=C\C[C@@H](C2=O)N(C)C(=O)CN(C)C1=O [PP1905]			NRAS/KRAS (KD ratio) ([1]; ratio of KD for GDP-bound NRAS wild-type protein to KD for KRAS): A (a compound having 10 or more and less than 20 is denoted as A); HRAS/KRAS (KD ratio) ([2]; ratio of KD for GDP-bound HRAS wild-type protein to KD for KRAS): A (a compound having 10 or more and less than 20 is denoted as A)
CCCN(C)C(=O)[C@@H]1CC(=O)N(C)[C@@H](C2CC2)C(=O)N[C@@H]([C@@H](C)CC)C(=O)N(C)CC(=O)N(C)[C@H]2C/C=C\CCN(C2=O)[C@@H](Cc2ccc(C(F)(F)F)cc2)C(=O)N(C)CC(=O)N[C@@H](CCc2cc(F)c(C(F)(F)F)c(F)c2)C(=O)N2C[C@H](OCC)C[C@H]2C(=O)NC2(CC(C)(C)C2)C(=O)N(C)[C@@H](C2CCCC2)C(=O)N1C [PP2037]			NRAS/KRAS (ratio of KD value for NRAS to KD value for KRAS) [1]: A (a compound having 10 or more and less than 20 is denoted as A); HRAS/KRAS (ratio of KD value for HRAS to KD value for KRAS) [2]: A (a compound having 10 or more and less than 20 is denoted as A)
CCC[C@H]1C(=O)N[C@@H]([C@@H](C)CC)C(=O)N(CCC)CC(=O)N(C)[C@H]2C/C=C\CCN(C2=O)[C@@H](Cc2ccc(C)cc2)C(=O)N(C)CC(=O)N[C@@H](CCc2ccc(C(F)(F)F)c(OC)c2)C(=O)N2C[C@H](OCC)C[C@H]2C(=O)NC2(CC(C)(C)C2)C(=O)N(C)[C@@H](C2CCCC2)C(=O)N(C)[C@H](C(=O)N(C)C)CC(=O)N1C [PP2054]			NRAS/KRAS (ratio of KD value for NRAS to KD value for KRAS) [1]: A (a compound having 10 or more and less than 20 is denoted as A); HRAS/KRAS (ratio of KD value for HRAS to KD value for KRAS) [2]: A (a compound having 10 or more and less than 20 is denoted as A)
